Test results as given in ChEMBL document CHEMBL1201862, “PubChem BioAssay data set” (2004).
Calls of active or inactive are those of the source.

Key:
[1] = target: T1, Delta-type opioid receptor (Homo sapiens, UniProt P41143); assay: HTS Image-Based Screen for Antagonists of the DOR Receptor. [Related pubchem assays (depositor defined):AID1777, AID1785, AID1786, AID2133]; assay type: functional
Mu-type opioid receptor = Mu-type opioid receptor (Homo sapiens, UniProt P35372); assay: HTS Image-Based Screen for Agonists of the MOR Receptor. [Related pubchem assays (depositor defined):AID1777, AID1785, AID1786, AID2133]; assay type: functional;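 note: imaging of beta-arrestin GFP recruitment into spots after receptor activation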
[2] = target: Neuropeptide Y receptor type 2 (Homo sapiens, UniProt P49146); assay: NPY-Y2 antagonist potency, selectivity check, dose response, counter-screen for NPY-Y1 antagonist project, cell-based (AID 1278); assay type: functional
[3] = target: T1, Delta-type opioid receptor; assay: HTS Image-Based Screen for Agonists of the DOR Receptor. [Related pubchem assays (depositor defined):AID1777, AID1786, AID2133]; assay type: functional
[4] = target: Neuropeptide Y receptor type 1 (Homo sapiens, UniProt P25929); assay: NPY-Y1 receptor antagonist potency, dose response, cell-based (AID 1277); assay type: functional
[5] = target: T2, Kappa-type opioid receptor (Homo sapiens, UniProt P41145); assay type: functional
[6] = target: T2, Kappa-type opioid receptor; assay type: functional; remark: listed apart in the source
Leucine aminopeptidase = target: T3, Leucine aminopeptidase (Plasmodium falciparum 3D7, UniProt Q8IL11); assay: P. falciparum M17LAP inhibitors, primary screen, biochemical, fluorogenic H-Leu-NHMec substrate, 1536-well (AID 1619); assay type: functional
T3 sequence (Q8IL11 whole entry): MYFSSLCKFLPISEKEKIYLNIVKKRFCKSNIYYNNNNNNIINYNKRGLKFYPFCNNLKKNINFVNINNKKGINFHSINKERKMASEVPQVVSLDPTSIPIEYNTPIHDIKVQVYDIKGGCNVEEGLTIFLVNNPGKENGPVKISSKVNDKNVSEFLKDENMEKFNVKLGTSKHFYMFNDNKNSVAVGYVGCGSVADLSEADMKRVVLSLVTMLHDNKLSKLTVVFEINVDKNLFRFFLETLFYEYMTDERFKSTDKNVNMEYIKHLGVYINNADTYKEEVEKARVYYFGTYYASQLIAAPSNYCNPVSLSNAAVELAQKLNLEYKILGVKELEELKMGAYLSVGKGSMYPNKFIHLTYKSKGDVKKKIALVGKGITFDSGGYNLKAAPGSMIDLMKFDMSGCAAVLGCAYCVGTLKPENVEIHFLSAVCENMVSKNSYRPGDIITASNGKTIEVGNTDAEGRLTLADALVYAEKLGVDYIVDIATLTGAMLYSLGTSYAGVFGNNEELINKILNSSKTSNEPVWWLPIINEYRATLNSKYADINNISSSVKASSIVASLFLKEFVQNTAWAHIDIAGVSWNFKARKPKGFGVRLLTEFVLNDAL

[7] = Counterscreen for IDE inhibitors: Luminescence-based cell-based high throughput dose response assay to identify compounds that are cytotoxic to HEK cells. [Related pubchem assays: 434962 (Primary screen (IDE inhibitors in singlicate)), 449730 (Counterscreen (Cytotoxicity in triplicate)), 435028 (Confirmation (IDE inhibitors in triplicate)) …; assay type: functional; conditions: HEK293
Insulin-degrading enzyme = Insulin-degrading enzyme (Homo sapiens, UniProt P14735); assay: Dose Response: Fluorescence polarization-based cell-based high throughput dose response assay for inhibitors of insulin-degrading enzyme (IDE). [Related pubchem assays: 434962 (Primary screen (IDE inhibitors in singlicate)), 449730 (Counterscreen (Cytotoxicity in triplicate)), 435028 (Confirmation (IDE inhibitors in triplicate)), 434984 (Summary …; assay type: functional
Aspartyl aminopeptidase = Aspartyl aminopeptidase (Plasmodium falciparum 3D7, UniProt Q8I2J3)
Procathepsin L = Procathepsin L (Homo sapiens, UniProt P07711)
Large T antigen = Large T antigen (Simian virus 40, UniProt P03070); assay type: functional, Betapolyomavirus macacae;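 note: Confirmatory-stage PubChem screen for compounds that inhibit SV40 T antigen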
[8] = NIH-3T3 fibroblast cytotoxicity, dose response, cytotoxicity control, cell-based, fluorescence, Alamar Blue, secondary assay (AID 2327); assay type: functional;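 note: NIH-3T3 mouse fibroblasts cultured with fluconazole at 8 µg/mL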
cells [9] = assay type: functional, cell-based
[10] = C. albicans growth with fluconazole, confirmation, fluorescence, retest (AID 2467); assay type: functional, cell-based
[11] = target: T4, Mannose-6-phosphate isomerase (Homo sapiens, UniProt P34949); assay: inhibitors of human PMI, primary screen, biochemical, fluorescence intensity, coupled assay (AID 1209)
T4 sequence (P34949 whole entry): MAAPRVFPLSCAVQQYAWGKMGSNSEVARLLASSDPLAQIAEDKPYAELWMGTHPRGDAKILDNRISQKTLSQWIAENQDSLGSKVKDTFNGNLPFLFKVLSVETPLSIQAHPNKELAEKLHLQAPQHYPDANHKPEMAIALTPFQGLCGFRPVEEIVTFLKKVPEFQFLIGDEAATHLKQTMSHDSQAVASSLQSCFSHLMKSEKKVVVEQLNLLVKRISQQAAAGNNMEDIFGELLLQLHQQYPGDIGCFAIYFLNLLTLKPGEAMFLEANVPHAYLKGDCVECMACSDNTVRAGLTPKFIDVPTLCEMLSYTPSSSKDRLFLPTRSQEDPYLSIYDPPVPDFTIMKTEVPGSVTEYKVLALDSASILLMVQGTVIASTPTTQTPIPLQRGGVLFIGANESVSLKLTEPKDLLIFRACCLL

cells [12] = assay type: functional, cell-based; remark: listed apart in the source
[13] = target: T5, Serine/threonine-protein phosphatase (Candida dubliniensis (strain CD36 / CBS 7987 / NCPF 3949 / NRRLY-17841) (Yeast), UniProt B9W6M3); assay: calcineurin pathway inhibitors in yeast reporter, dose response, S. cerevisiae, CDRE-lacZ, luminescence, secondary (AID 2388); assay type: functional, cell-based;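 note: yeast reporter cells carrying a calcineurin-responsive lacZ construct stimulated with calcium chloride; luminescent beta-galactosidase reporter signal in whole cells rather than isolated phosphatase activity; potency for inhibition where a drop in reporter signal means calcineurin blockade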
T5 sequence (B9W6M3 whole entry): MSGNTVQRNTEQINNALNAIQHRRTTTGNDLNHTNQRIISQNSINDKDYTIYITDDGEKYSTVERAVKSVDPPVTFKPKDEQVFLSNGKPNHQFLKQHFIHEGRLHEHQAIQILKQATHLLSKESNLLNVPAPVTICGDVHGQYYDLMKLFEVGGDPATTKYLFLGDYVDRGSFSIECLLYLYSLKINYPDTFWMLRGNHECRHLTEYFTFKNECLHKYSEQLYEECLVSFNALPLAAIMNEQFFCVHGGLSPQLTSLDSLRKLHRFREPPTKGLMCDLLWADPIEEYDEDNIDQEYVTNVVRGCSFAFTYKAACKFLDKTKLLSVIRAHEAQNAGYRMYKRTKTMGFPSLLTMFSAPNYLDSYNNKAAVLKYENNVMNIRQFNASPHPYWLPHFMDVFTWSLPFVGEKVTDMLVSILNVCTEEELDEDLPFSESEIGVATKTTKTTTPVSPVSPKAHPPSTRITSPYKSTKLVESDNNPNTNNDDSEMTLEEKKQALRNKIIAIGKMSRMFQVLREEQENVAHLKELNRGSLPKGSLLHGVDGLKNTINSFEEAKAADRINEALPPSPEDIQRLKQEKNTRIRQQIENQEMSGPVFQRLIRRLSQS

[14] = enhancers of respiration in Yfh1-depleted yeast, dose response, Friedreich's ataxia, plus single-dose screen (AID 1465); assay type: functional;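 note: yeast depleted of Yfh1p frataxin homolog grown on glycerol needing respiration; WST-1 tetrazolium dye reduction as measure of cellular dehydrogenase metabolic activity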
[15] = target: Induced myeloid leukemia cell differentiation protein Mcl-1 (Homo sapiens, UniProt Q07820); assay type: functional
[16] = target: T4, Mannose-6-phosphate isomerase; assay: human PMI inhibitors, high substrate, primary screen, biochemical, fluorescence intensity, high mannose 6-phosphate (AID 1220)
Coagulation factor XII = target: T6, Coagulation factor XII (Homo sapiens, UniProt P00748); assay type: functional;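 note: activated factor XIIa alpha cleaving a fluorogenic AMC peptide substrate; inhibitor potency from loss of enzyme activity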
T6 sequence (P00748 whole entry): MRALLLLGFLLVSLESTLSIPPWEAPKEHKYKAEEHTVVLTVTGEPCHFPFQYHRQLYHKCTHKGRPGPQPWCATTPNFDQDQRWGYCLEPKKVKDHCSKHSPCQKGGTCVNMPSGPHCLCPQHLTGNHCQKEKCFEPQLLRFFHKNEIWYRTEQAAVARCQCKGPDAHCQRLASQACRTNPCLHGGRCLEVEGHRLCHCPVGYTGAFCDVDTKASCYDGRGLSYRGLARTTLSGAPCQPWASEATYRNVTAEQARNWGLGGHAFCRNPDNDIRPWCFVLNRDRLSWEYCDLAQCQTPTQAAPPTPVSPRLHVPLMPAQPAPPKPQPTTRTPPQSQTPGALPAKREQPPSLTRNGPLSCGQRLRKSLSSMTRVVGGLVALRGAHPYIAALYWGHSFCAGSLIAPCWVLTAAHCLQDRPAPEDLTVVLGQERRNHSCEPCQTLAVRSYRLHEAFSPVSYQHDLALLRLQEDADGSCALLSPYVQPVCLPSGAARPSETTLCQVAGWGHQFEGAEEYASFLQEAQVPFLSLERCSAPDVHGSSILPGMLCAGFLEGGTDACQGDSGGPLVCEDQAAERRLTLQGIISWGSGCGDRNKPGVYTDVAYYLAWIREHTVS

[17] = target: ATP-dependent molecular chaperone HSP82 (Candida albicans (strain WO-1) (Yeast), UniProt C4YTQ8); assay: loss of DOC-induced GRE-beta-galactosidase reporter signal, dose response, Hsp90 inhibitor project, S. cerevisiae, luminescence (AID 2400); assay type: functional, cell-based;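 note: beta-galactosidase luminescence from glucocorticoid response element reporter as proxy for Hsp90 function; inhibitor potency where signal loss means Hsp90 inhibition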
Vero = assay: cytotoxicity of synthesized analogs in Vero cells, SAR follow-up, cytotoxicity control for West Nile virus antiviral project, cell-based, set II (AID 2402); assay type: functional; conditions: Chlorocebus sabaeus
[18] = A Cell Based Assay for the Identification of Probe candidate Compounds with Anti- Venezuelan Equine Encephalitis virus. [Related pubchem assays: 2409, 2419, 1621, 2238, 2405, 2024, 2065, 2402, 2414, 1635, 1650, 2244 ]; assay type: functional

T2 sequence (P41145 whole entry): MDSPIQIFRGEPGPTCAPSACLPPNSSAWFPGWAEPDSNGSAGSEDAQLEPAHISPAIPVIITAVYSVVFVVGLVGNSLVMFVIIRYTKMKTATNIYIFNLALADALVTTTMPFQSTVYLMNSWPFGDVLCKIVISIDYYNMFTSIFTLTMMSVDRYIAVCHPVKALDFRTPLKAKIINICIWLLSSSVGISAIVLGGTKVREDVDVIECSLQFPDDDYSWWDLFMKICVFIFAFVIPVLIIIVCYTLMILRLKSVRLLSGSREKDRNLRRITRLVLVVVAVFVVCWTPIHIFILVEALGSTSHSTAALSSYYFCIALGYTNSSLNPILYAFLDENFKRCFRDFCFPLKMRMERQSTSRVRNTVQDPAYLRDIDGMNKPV
T1 sequence (P41143 whole entry): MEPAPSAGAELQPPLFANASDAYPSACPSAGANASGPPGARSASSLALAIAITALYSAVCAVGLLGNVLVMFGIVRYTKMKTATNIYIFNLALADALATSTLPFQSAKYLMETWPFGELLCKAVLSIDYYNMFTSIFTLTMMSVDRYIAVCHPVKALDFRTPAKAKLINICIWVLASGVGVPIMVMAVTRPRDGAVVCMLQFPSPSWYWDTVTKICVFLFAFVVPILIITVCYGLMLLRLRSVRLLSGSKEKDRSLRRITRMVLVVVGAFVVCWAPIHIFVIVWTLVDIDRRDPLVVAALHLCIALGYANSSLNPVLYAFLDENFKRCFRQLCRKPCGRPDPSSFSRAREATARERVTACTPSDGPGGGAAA
Sequence of Procathepsin L (P07711 whole entry): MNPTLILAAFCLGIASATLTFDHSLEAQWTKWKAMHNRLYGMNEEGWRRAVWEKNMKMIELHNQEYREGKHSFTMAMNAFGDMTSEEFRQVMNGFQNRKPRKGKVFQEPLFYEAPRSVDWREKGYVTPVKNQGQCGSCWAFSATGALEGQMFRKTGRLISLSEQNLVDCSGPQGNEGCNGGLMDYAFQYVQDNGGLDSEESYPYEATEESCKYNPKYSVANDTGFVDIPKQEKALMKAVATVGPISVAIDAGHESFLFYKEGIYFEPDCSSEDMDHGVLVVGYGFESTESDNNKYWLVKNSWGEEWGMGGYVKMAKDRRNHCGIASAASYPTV
Sequence of Mu-type opioid receptor (P35372 whole entry): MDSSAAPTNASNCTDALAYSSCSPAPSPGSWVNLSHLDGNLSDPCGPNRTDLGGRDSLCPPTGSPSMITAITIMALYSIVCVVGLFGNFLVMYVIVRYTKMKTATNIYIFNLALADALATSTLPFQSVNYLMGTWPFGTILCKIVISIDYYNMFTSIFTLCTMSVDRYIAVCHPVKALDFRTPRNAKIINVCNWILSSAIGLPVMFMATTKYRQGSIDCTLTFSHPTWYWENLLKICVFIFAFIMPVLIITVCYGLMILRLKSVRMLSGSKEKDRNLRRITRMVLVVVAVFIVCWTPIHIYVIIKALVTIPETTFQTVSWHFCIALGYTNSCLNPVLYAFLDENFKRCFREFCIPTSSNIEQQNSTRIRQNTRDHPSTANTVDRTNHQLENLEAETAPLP
Sequence of Insulin-degrading enzyme (P14735 whole entry): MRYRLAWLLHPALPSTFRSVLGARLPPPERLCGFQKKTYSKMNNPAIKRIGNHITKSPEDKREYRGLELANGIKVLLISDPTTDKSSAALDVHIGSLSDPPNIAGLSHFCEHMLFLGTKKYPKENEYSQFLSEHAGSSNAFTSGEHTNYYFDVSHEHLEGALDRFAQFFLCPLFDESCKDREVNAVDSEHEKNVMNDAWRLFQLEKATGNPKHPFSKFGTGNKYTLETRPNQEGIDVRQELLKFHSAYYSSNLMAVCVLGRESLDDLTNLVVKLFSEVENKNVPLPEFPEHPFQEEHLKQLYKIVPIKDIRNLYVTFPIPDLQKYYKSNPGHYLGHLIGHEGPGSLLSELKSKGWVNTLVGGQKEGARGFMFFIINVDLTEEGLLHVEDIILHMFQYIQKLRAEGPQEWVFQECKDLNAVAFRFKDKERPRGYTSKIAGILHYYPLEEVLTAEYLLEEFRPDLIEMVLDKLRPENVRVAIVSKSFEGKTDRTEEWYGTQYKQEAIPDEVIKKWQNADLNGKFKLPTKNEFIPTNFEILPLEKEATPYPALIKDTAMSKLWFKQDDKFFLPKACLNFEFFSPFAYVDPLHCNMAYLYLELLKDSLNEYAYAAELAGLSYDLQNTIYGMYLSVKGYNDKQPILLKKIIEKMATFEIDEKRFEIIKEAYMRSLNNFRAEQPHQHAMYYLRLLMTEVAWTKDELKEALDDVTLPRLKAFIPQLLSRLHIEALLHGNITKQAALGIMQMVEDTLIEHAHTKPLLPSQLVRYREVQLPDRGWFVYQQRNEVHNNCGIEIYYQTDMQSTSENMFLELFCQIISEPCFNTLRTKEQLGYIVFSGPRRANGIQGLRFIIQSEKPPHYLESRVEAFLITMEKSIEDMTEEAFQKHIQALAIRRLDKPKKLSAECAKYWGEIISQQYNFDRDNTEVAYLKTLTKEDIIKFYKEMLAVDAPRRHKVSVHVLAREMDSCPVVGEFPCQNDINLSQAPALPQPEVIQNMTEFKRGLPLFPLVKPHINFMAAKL
Sequence of Neuropeptide Y receptor type 1 (P25929 whole entry): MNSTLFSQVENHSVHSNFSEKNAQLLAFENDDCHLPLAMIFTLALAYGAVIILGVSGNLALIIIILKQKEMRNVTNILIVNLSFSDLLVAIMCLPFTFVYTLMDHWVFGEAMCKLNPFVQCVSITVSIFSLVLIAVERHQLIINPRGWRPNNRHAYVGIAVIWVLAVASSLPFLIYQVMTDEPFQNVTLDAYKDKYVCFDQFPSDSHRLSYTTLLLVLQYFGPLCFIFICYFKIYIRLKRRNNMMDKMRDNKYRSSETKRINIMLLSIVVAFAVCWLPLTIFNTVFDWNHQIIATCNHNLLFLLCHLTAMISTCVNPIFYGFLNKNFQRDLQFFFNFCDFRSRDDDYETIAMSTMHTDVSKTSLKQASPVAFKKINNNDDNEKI
Sequence of Large T antigen (P03070 whole entry): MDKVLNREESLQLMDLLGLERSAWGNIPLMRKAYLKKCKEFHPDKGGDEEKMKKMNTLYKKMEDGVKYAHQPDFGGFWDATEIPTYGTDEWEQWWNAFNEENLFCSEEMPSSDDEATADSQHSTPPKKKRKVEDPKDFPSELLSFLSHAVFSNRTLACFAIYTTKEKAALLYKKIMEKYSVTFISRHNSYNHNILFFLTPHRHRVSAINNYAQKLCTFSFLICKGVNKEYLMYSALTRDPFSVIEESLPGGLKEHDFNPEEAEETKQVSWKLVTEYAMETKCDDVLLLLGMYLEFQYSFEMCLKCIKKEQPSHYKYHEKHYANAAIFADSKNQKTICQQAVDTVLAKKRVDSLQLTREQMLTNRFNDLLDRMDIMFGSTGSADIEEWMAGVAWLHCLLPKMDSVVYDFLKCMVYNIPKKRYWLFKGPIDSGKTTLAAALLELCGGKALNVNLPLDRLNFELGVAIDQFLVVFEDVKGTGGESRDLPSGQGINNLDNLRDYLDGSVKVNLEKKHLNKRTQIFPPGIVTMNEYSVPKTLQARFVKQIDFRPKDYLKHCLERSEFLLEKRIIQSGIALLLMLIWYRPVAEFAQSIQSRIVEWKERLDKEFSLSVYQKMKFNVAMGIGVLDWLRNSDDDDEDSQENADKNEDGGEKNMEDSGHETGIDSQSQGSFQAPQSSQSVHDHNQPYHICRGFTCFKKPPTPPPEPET
Sequence of ATP-dependent molecular chaperone HSP82 (C4YTQ8 whole entry): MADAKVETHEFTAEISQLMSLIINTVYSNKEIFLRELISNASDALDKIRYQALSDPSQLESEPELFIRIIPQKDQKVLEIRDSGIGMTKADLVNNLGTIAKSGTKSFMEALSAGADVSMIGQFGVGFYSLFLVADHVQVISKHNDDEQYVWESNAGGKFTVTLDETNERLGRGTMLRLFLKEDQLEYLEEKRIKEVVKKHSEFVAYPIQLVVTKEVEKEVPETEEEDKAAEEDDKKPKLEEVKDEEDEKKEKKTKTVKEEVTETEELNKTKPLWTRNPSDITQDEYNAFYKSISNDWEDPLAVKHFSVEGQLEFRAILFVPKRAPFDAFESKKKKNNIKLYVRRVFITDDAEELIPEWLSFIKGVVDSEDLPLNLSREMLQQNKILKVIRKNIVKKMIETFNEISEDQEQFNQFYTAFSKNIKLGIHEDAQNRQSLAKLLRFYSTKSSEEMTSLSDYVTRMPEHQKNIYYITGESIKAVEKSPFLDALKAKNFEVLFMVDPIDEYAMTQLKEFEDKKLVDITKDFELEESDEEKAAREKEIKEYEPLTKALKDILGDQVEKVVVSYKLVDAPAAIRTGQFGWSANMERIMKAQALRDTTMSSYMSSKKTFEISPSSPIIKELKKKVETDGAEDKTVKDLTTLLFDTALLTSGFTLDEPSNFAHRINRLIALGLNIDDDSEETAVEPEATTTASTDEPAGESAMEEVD
Sequence of Induced myeloid leukemia cell differentiation protein Mcl-1 (Q07820 whole entry): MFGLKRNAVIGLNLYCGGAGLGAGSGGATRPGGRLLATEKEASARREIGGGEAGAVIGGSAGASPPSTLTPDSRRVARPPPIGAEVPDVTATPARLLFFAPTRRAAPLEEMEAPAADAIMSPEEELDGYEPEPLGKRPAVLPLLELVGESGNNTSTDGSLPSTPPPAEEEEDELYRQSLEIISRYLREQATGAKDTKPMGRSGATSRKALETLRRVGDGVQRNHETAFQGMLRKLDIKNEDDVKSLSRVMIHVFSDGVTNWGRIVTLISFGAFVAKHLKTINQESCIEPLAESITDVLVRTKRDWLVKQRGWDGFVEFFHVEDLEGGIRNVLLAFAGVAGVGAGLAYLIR

SMILES: O=C(c1cnccn1)N(Cc1ccco1)C1(C(=O)NC2CCCCC2)CCCCC1
- IC50 [1]: > 32 µM (inactive)
- EC50 (Mu-type opioid receptor): > 32 µM (inactive)
- IC50 [2]: > 35 µM (not active)
- EC50 [3]: > 32 µM (inactive)
- IC50 [4]: > 35 µM (not active)
- EC50 [5]: 1.32 µM
- EC50 [6]: 2.39 µM

SMILES: O=C(O)CC12CC3CC(C1)CC(n1ncc(NCc4ccc(F)cc4Cl)c(Cl)c1=O)(C3)C2
- IC50 (Leucine aminopeptidase): 32.1 µM (active)
- IC50 [7]: > 55.7 µM (not active)
- IC50 (Insulin-degrading enzyme): 18.1 µM (not active)

SMILES: N/C(=N\N=C\c1ccc(O)cc1O)N[N+](=O)[O-]
- IC50 (Aspartyl aminopeptidase): 4.61 µM (active)
- IC50 (Procathepsin L): > 59.6 µM (not active)
- IC50 (Large T antigen): 8.78 µM (active)

SMILES: O=C(N/N=C/c1ccc(O)c(O)c1O)/C(=C/c1ccc([N+](=O)[O-])cc1)NC(=O)c1ccccc1
- EC50 [8]: > 160 µM (inactive)
- EC50 (cells [9]): > 350 µM (not active)
- EC50 [10]: 0.587 µM (active)
- IC50 [11]: > 50 µM (not active)
- EC50 (cells [12]): > 350 µM (not active)
- EC50 [13]: > 180 µM (inactive)
- EC50 [14]: > 100 µM (active)
- IC50 [15]: 19.3 µM (active)
- IC50 [16]: > 50 µM (not active)
- IC50 (Coagulation factor XII): > 50 µM (inactive)
- EC50 [17]: > 160 µM (inactive)

SMILES: COc1ccc(Cn2nc(C)cc2OC(=O)c2ccccc2)cc1
- CC50 (Vero): > 200 µM (active)
- IC50 [18]: > 133 µM (active)
